Data published in US20050148631A1, “Amino heterocyclyl inhibitors of 11-beta-hydroxy steroid dehydrogenase type 1” (AGOURON PHARMACEUTICALS, INC., priority 2003, published 2005).
Where two headings read alike, the source gives them in different places.

How the values were obtained:
[1] = biological target: T1, 11β-hsd-1 enzyme (Homo sapiens, UniProt P28845); experiment: 11β-hsd-1 enzyme assay, percentage of inhibition (3H-cortisone to cortisol, radio-HPLC); type: biochemical; settings: for inhibition at 0.1 µM: read-out: % inh @ 0.1 uM
T1 sequence (P28845 whole entry, species assumed): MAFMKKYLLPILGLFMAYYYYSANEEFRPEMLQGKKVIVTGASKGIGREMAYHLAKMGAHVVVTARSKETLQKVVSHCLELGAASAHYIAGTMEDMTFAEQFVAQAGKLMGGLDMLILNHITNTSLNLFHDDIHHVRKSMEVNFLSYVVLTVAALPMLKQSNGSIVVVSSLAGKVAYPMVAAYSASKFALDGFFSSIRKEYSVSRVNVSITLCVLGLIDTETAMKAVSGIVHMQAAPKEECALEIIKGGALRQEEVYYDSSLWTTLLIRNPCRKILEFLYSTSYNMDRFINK

[2] = biological target: T1, 11β-hsd-1 enzyme; experiment: 11β-hsd-1 enzyme assay, Kiapp determination (3H-cortisone to cortisol, radio-HPLC); type: biochemical; settings: read-out: Ki app

Row | Structure (SMILES) | inhibition at 0.1 µM ([1]; 0.1 uM) | Ki [2] | inhibition at 0.1 µM ([1]; compound at 0.1 uM) | Ki ([2]; apparent Ki, 11β-hsd-1 enzyme) | % inh @ 0.1 uM ([1]; 0.1 uM)
1 | CCc1cccc(NS(=O)(=O)c2sc(-c3ccccc3)nc2C)n1 [Example 104] | 89.6% | 23 nM | – | – | –
2 | N#Cc1ccc(-c2ccc(S(=O)(=O)Nc3ccc4ccccc4n3)cc2)cn1 [Example 289] | – | – | 73.9% | 68 nM | –
3 | Cc1cccc(NS(=O)(=O)c2ccc(-c3ccc(C#N)cc3)cc2O)n1 [Example 286, 4′-Cyano-3-hydroxy-biphenyl-4-sulfonic acid (6-methyl-pyridin-2-yl)-amide] | – | – | 100% | 6.2 nM | –
4 | Cc1cccc(NS(=O)(=O)c2cccc(Cl)c2C)n1 [Example 38] | – | 169 nM | – | – | 49%
5 | CCOC(=O)Cc1cccc(NS(=O)(=O)c2sc3ccc(Cl)cc3c2C)n1 [Example 6] | 100% | 2.8 nM | – | – | –
6 | Cc1cccc(NS(=O)(=O)c2ccc(-c3ccc(C(C)C)cc3)c(C)c2)n1 [Example 233] | – | – | 78% | 110 nM | –
7 | Cc1cccc(NS(=O)(=O)c2ccc(-c3cccc(F)c3)c(C)c2)n1 [Example 224] | – | – | 93% | 19 nM | –
8 | Cc1c(S(=O)(=O)Nc2cccc(N)n2)sc2ccc(Cl)cc12 [Example 107] | 100% | < 1 nM | – | – | –
9 | Cc1cccc(NS(=O)(=O)c2ccc(-c3ccc(Cl)cc3Cl)cc2C)n1 [Example 167] | 100% | 36 nM | – | – | –
10 | CCc1cccc(NS(=O)(=O)c2sc3ccc(Cl)cc3c2C)n1 [Example 69] | 100% | 1.1 nM | – | – | –
11 | Cc1cccc(NS(=O)(=O)c2ccc(-c3ccc(CO)cc3)c(C)c2)n1 [Example 223] | – | – | 79% | 320 nM | –
12 | Cc1cccc(NS(=O)(=O)c2ccc(-c3ccc4c(c3)OCCO4)cc2C)n1 [Example 206] | – | – | 87% | 20 nM | –
13 | N#Cc1ccc(-c2ccc(S(=O)(=O)Nc3cccc(CCO)n3)cc2)cc1 [Example 117] | 84.8% | 26.2 nM | – | – | –
14 | Cc1cc(-c2ccc(S(=O)(=O)Nc3ccc4ccccc4n3)cn2)ccc1F [Example 292] | – | – | 72.4% | 49 nM | –
15 | Cc1cccc(NS(=O)(=O)c2sc3ccc(C#N)cc3c2C)n1 [Example 295, 5-Cyano-3-methyl-benzo[b]thiophene-2-sulfonic acid (6-methyl-pyridin-2-yl)-amide] | – | – | 100% | 2.3 nM | –
16 | Cc1cccc(NS(=O)(=O)c2ccc(-c3ccc(Cl)c(Cl)c3)cc2C)n1 [Example 176] | 100% | 5.2 nM | – | – | –
17 | N#Cc1ccc(-c2ccc(S(=O)(=O)Nc3ccc4ccccc4n3)cc2)nc1 [Example 288] | – | – | 91% | 11 nM | –
18 | COc1ccc(-c2ccc(S(=O)(=O)Nc3cccc(C)n3)c(C)c2)cc1OC [Example 182] | 79% | 23 nM | – | – | –
19 | N#Cc1ccc(-c2ccc(S(=O)(=O)Nc3cccc(C4CC4)n3)cc2)cc1 [Example 112, 4′-Cyano-biphenyl-4-sulfonic acid (6-cyclopropyl-pyridin-2-yl)-amide] | 100% | 1.9 nM | – | – | –
20 | Cc1cc(C)nc(NS(=O)(=O)N2CCC(c3ccc(C#N)cc3)CC2)c1 [Example 311] | – | – | 100% | 2.6 nM | –
21 | Cc1cccc(NS(=O)(=O)c2ccc(-c3cccc(C)c3C)cc2C)n1 [Example 197] | – | – | 89% | 29 nM | –
22 | Cc1cccc(NS(=O)(=O)c2ccc(-c3cccc(Cl)c3)cc2C)n1 [Example 163] | 97% | 8 nM | – | – | –
23 | Cc1cccc(NS(=O)(=O)c2ccc(-c3ccccc3Cl)c(C)c2)n1 [Example 212] | – | – | 75% | 47 nM | –
24 | Cc1cccc(NS(=O)(=O)c2sc3ccc(F)cc3c2C)n1 [Example 103] | 100% | < 1 nM | – | – | –
25 | CCc1ccccc1-c1ccc(S(=O)(=O)Nc2cccc(C)n2)c(C)c1 [Example 201] | – | – | 75% | 43 nM | –
26 | Cc1cccc(NS(=O)(=O)c2ccc(-c3cc(F)c(F)c(F)c3)c(C)c2)n1 [Example 228] | – | – | 74% | 29 nM | –
27 | Cc1cccc(NS(=O)(=O)c2ccc(-c3ccccc3Cl)cc2C)n1 [Example 164] | 93% | 13 nM | – | – | –

Row | Structure (SMILES) | inhibition at 0.1 µM ([1]; 0.1 uM) | Ki [2] | inhibition at 0.1 µM ([1]; compound at 0.1 uM) | Ki ([2]; apparent Ki, 11β-hsd-1 enzyme) | % inh @ 0.1 uM ([1]; 0.1 uM)
28 | Cc1cccc(NS(=O)(=O)c2ccc(-c3ccccc3O)cc2C)n1 [Example 181] | 83% | 53 nM | – | – | –
29 | Cc1cccc(NS(=O)(=O)c2ccc(-c3ccc(F)cc3)nc2)n1 [Example 268] | – | – | 70% | 40 nM | –
30 | CCN(CC)C(=O)Cc1cccc(NS(=O)(=O)c2ccc3ccccc3c2)n1 [Example 22] | 44.7% | 170 nM | – | – | –
31 | Cc1cccc(NS(=O)(=O)c2sc3ccc(Cl)cc3c2C)n1 [Example 46] | 98% | 3.2 nM | – | – | –
32 | O=S(=O)(Nc1ccc2ccccc2n1)c1ccc(-c2ccc(F)cc2)cc1 [Example 48] | 90% | 14.5 nM | – | – | –
33 | Cc1cccc(NS(=O)(=O)c2ccc(-c3ccccc3)c(C)c2)n1 [Example 214] | – | – | 72% | 36 nM | –
34 | Cc1cccc(NS(=O)(=O)c2ccc(-c3ccc(F)c(C)c3)cc2C)n1 [Example 183] | 91% | 14 nM | – | – | –
35 | Cc1cccc(NS(=O)(=O)c2ccc(-c3ccc(Cl)cc3)cc2)n1 [Example 249, 4′-Chloro-biphenyl-4-sulfonic acid (6-methyl-pyridin-2-yl)-amide] | – | – | 96% | 5.8 nM | –
36 | Cc1cccc(NS(=O)(=O)c2ccc(-c3ccc(C#N)cc3)cc2C)n1 [Example 277, 4′-Cyano-3-methyl-biphenyl-4-sulfonic acid (6-methyl-pyridin-2-yl)-amide] | – | – | 100% | < 1 nM | –
37 | Cc1cccc(NS(=O)(=O)c2ccc(-c3ccc(C#N)cc3)c(C)c2)n1 [Example 281] | – | – | 92.9% | 10 nM | –
38 | Cc1cc(-c2ccc(S(=O)(=O)Nc3cccc(N)n3)cc2)ccc1C#N [Example 282, 4′-Cyano-3′-methyl-biphenyl-4-sulfonic acid (6-amino-pyridin-2-yl)-amide] | – | – | 100% | < 1 nM | –
39 | CCOc1ccc(-c2ccc(S(=O)(=O)Nc3cccc(C)n3)cc2)c(C)c1 [Example 254] | – | – | 85.4% | 22.4 nM | –
40 | Cc1cccc(NS(=O)(=O)c2ccc(-c3ccc(C(F)(F)F)cn3)cc2)n1 [Example 271] | – | – | 87.7% | 20 nM | –
41 | CCc1ccc(-c2ccc(S(=O)(=O)Nc3cccc(C)n3)c(C)c2)cc1 [Example 191] | 100% | 11 nM | – | – | –
42 | Cc1cccc(NS(=O)(=O)c2ccc(-c3ccc(F)c(Cl)c3)c(C)c2)n1 [Example 219] | – | – | 68% | 17 nM | –
43 | Cc1cccc(NS(=O)(=O)c2ccc3ccccc3c2)n1 [Example 37] | 45% | 84 nM | – | – | –
44 | N#Cc1ccc(-c2ccc(S(=O)(=O)Nc3ccc4ccccc4n3)cn2)cc1 [Example 290, 6-(4-Cyano-phenyl)-pyridine-3-sulfonic acid quinolin-2-ylamide] | – | – | 100% | 12 nM | –
45 | CCOC(=O)Cc1cccc(NS(=O)(=O)c2cccc(Cl)c2C)n1 [Example 1, Ethyl [6-(3-Chloro-2-methyl-benzenesulfonylamino)-pyridin-2-yl]-acetate] | 72.3% | 42 nM | – | – | –
46 | Cc1cc(C)nc(NS(=O)(=O)N2CCc3ccccc3C2)c1 [Example 304] | – | – | 79.6% | 20 nM | –
47 | Cc1cccc(NS(=O)(=O)c2ccc(-c3cccc(Cl)c3Cl)cc2C)n1 [Example 196] | 90% | 7.1 nM | – | – | –
48 | Cc1cccc(NS(=O)(=O)c2ccc(-c3ccc(F)c(F)c3)cc2C)n1 [Example 208] | – | – | 95% | 6.7 nM | –
49 | O=S(=O)(Nc1cccc(C2CC2)n1)c1ccc(-c2ccc(C(F)(F)F)cc2)nc1 [Example 294] | – | – | 94.6% | 7.3 nM | –
50 | COc1cccc(-c2ccc(S(=O)(=O)Nc3cccc(C)n3)c(C)c2)c1 [Example 162] | 89% | 21 nM | – | – | –
51 | Cc1cccc(NS(=O)(=O)c2ccc(-c3ccc(Cl)cc3)cc2C)n1 [Example 168] | 96% | 2.8 nM | – | – | –
52 | Cc1cccc(NS(=O)(=O)c2ccc(-c3ccc4c(c3)CCO4)cc2C)n1 [Example 211] | – | – | 81% | 23 nM | –
53 | Cc1cccc(NS(=O)(=O)c2ccc(-c3cccc(F)c3)cc2)n1 [Example 133] | 84.8% | 24.7 nM | – | – | –
